Fold induction data for 61 compounds are collected here from patent publication US20250282742A1, “BENZOFURAN DERIVATIVES FOR TARGETING AUTOPHAGY” (Automera PTE. LTD, priority 2024, published 2025).

Molecules are shown by their SMILES. Bounds are passed on as bounds.

The subject of the assay is p62 puncta in HeLa cells. Nature of the assay: p62 puncta assay (immunocytochemistry and imaging, EVOS M7000 or Operetta CLS). It counts as cell-based. The settings on record: Homo sapiens, fold change in p62 puncta levels relative to DMSO control, 24 hr. On the procedure:
HeLa cells were seeded in coated 96-well plates (10,000 cells) and allowed to adhere overnight. After 24 hours of treatment with either vehicle (DMSO) or test compounds, the media was discarded, and cells were rinsed with ice-cold 1×PBS before fixation by 4% formaldehyde or paraformaldehyde for 20 min. Cells were then washed with 1×PBS and permeabilized with 0.1% Triton X-100 in PBS for 20 min and blocked with Blocking Buffer in PBS for 1 hour. The cells were incubated thereafter for 1 hour with anti-p62 primary antibody in Blocking Buffer, followed by incubation with secondary antibody for 1 hour. DAPI dye was used to visualize nuclei of fixed cells. The blocking buffer used were 5% Fetal Bovine Serum (FBS, ThermoFIsher Scientific, 10270106) and Li-cor Intercept (PBS) Blocking Buffer (Li-cor, 927-70001). The primary antibody used was mouse anti-p62 primary antibody (Novus Biologicals, H00008878-MO1). The secondary antibodies used were goat anti-mouse Alexa Fluor Plus 488 secondary antibody (Invitrogen, GOXMS) and goat anti-mouse Alexa Fluor 488 secondary antibody (Invitrogen, A-11029). The DAPI dyes used were DAPI dye (Invitrogen, 62248) and DAPI dye (Invitrogen, D1306).
For the EVOS M7000 System, cells were imaged on the EVOS M7000 microscope using a 20× air objective (Nikon, N.A 0.45). DAPI and p62 channels were illuminated with LED light cubes using integrated hard-coated filter sets for DAPI (357/447 nm) and GFP (470/525 nm) respectively. Images were analysed for p62 puncta count on the Celeste 6.0 software.
For the Operetta CLS System, cells were imaged on the Operetta CLS using a 63× water objective on the DAPI and Alexa 488 channels. Images were analysed for p62 puncta count on the Harmony 5.1 software.
HeLa cells were treated with compounds for 24 hours to evaluate the effect of these compounds on p62 puncta activity. The resulting changes in levels of p62 puncta were assessed by imaging, either on the EVOS M7000 or Operetta CLS systems as described in experimental procedures. The fold change of p62 puncta levels induced by compound treatment relative to vehicle control (DMSO) was determined and summarized in Table 10.
In turn, `CC(C)(C)OC(=O)CCCCOCCNCc1ccc2cc(CCc3ccc(F)cc3)oc2c1` [compound 137] displayed a fold induction at 5 µM below 2.

As to `COc1ccc(-c2cc3ccc(CNCCO)cc3o2)cc1` [compound 76], the fold induction at 5 µM was above 2. To `CC(C)(C)OC(=O)N1CCC(CCOCCNCc2ccc3cc(CCc4ccc(F)cc4)oc3c2)CC1` [compound 152] belongs above 2. In turn, `COCCNCc1ccc2cc(-c3ccccc3)oc2c1` [compound 105] showed a fold induction at 5 µM above 2.

`CC(C)(C)OC(=O)NCCCOCCNCc1ccc2cc(CCc3ccc(F)cc3)oc2c1` [compound 154] returned a fold induction at 5 µM above 2. For `CNC(=O)CCOCCOCCNCc1ccc2cc(-c3ccccc3)oc2c1` [compound 121], the fold induction at 5 µM was below 2.

`C#CCOCCOCCNCc1ccc2cc(CCc3ccc(F)cc3)oc2c1` [compound 129]: the fold induction at 5 µM was above 2.

The compound `CNCCOCCOCCNCc1ccc2cc(CCc3ccc(F)cc3)oc2c1` [compound 86] displayed a fold induction at 5 µM above 2.

For the compound `C#CCCOCCOCCOCCNCc1ccc2cc(Cc3ccc(Cl)cc3)oc2c1` [compound 96], the fold induction at 5 µM is above 2.

Consider `CC(C)(C)OC(=O)NC[C@H]1CC[C@H](COCCNCc2ccc3cc(CCc4ccc(F)cc4)oc3c2)CC1` [compound 167], for which the fold induction at 5 µM was above 2. As for `CC(C)(C)OC(=O)CCCCCCCCOCCNCc1ccc2cc(CCc3ccc(F)cc3)oc2c1` [compound 139], the fold induction at 5 µM is below 2. Compound `CC(C)NCCOCc1ccc2cc(CCc3ccc(F)cc3)oc2c1` [compound 79] displayed a fold induction at 5 µM above 2.

`CC(C)NCC(O)COc1ccc2cc(-c3ccccc3)oc2c1` (stereo not shown) [compound 78] had a fold induction at 5 µM above 2.

In turn, `CC(C)(C)OC(=O)NCCOCCOCCOCCNCc1ccc2cc(CCc3ccc(F)cc3)oc2c1` [compound 125] yielded a fold induction at 5 µM above 2. To `CC(C)(C)OC(=O)N1CCC(OCCNCc2ccc3cc(CCc4ccc(F)cc4)oc3c2)C1` (stereo not shown) [compound 157] belongs above 2; to `CC(C)(C)OC(=O)CCOCCNCc1ccc2cc(CCc3ccc(F)cc3)oc2c1` [compound 132], above 2; to `C#CCCOCCOCCOCCNCc1ccc2cc(CCc3ccc(F)cc3)oc2c1` [compound 84], above 2. Under `CC(C)(C)OC(=O)CCCCCOCCNCc1ccc2cc(CCc3ccc(F)cc3)oc2c1` [compound 140] stands below 2.

For the compound `CC(C)(C)OC(=O)N1CCC(COCCNCc2ccc3cc(CCc4ccc(F)cc4)oc3c2)CC1` [compound 123], the fold induction at 5 µM was above 2.

`C#CCCOCCOCCNCc1ccc2cc(CCc3ccc(F)cc3)oc2c1` [compound 83, 2-(2-(but-3-yn-1-yloxy)ethoxy)-N-((2-(4-fluorophenethyl)benzofuran-6-yl)methyl)ethan-1-amine] returned a fold induction at 5 µM above 2. Under `CC(C)(C)OC(=O)CCCOCCNCc1ccc2cc(CCc3ccc(F)cc3)oc2c1` [compound 145] stands below 2; under `CC(C)(C)OC(=O)COCCCOCCNCc1ccc2cc(CCc3ccc(F)cc3)oc2c1` [compound 128], above 2. To `CC(C)(C)OC(=O)c1ccc(COCCNCc2ccc3cc(CCc4ccc(F)cc4)oc3c2)cc1` [compound 134] belongs above 2; to `C#CCCOCCOCCNCC(O)COc1ccc2cc(Cc3ccccc3)oc2c1` (stereo not shown) [compound 98, 1-((2-benzylbenzofuran-6-yl)oxy)-3-((2-(2-(but-3-yn-1-yloxy)ethoxy)ethyl)amino)propan-2-ol], above 2. To `CC(C)(C)OC(=O)Nc1ccc(COCCNCc2ccc3cc(CCc4ccc(F)cc4)oc3c2)cc1` [compound 151] belongs above 2; to `COC(=O)c1ccc(N2CCC(COCCNCc3ccc4cc(CCc5ccc(F)cc5)oc4c3)CC2)cc1` [compound 162], above 2; to `CC(C)NCC(O)COc1ccc2cc(CCc3ccc(F)cc3)oc2c1` (stereo not shown) [compound 80], above 2. Turning to `CC(C)(C)OC(=O)NCCCCCOCCNCc1ccc2cc(CCc3ccc(F)cc3)oc2c1` [compound 148], the fold induction at 5 µM was below 2. As to `CC(C)(C)OC(=O)NCC1CC(COCCNCc2ccc3cc(CCc4ccc(F)cc4)oc3c2)C1` (stereo not shown) [compound 163], the fold induction at 5 µM was above 2.

Consider `CC(C)(C)OC(=O)NCCOCCNCc1ccc2cc(CCc3ccc(F)cc3)oc2c1` [compound 122], for which the fold induction at 5 µM was above 2. Under `OCCNCc1ccc2cc(CN3CCCCC3)oc2c1` [compound 25] stands below 2; under `COC1CC(NCc2ccc3cc(-c4ccccc4)oc3c2)C1` (stereo not shown) [compound 107], below 2; under `C#CCCCCCCCCOCCNCc1ccc2cc(CCc3ccc(F)cc3)oc2c1` [compound 161], above 2. To `COC(=O)C1(COCCNCc2ccc3cc(CCc4ccc(F)cc4)oc3c2)COC1` [compound 146] belongs below 2; to `COC1CN(Cc2ccc3cc(-c4cccnc4)oc3c2)C1` [compound 112], below 2.

On to `C#CCCCCCOCCNCc1ccc2cc(CCc3ccc(F)cc3)oc2c1` [compound 138], for which the fold induction at 5 µM was above 2. To `C#CCCOCCNCc1ccc2cc(CCc3ccc(F)cc3)oc2c1` [compound 133] belongs above 2; to `CC(C)(C)OC(=O)NCCOCCOCCNCc1ccc2cc(CCc3ccc(F)cc3)oc2c1` [compound 124], above 2.

Take `CO[C@@H]1CCCN(Cc2ccc3cc(-c4ccccc4)oc3c2)C1` [compound 109]: the fold induction at 5 µM is below 2.

In turn, `C#Cc1ccc(COCCNCc2ccc3cc(CCc4ccc(F)cc4)oc3c2)cc1` [compound 164] displayed a fold induction at 5 µM above 2. To `COC(=O)CCOCCNCC(O)COc1ccc2cc(Cc3ccccc3)oc2c1` (stereo not shown) [compound 99] belongs below 2; to `CC(C)(C)OC(=O)NC1CCN(CCOCCNCc2ccc3cc(CCc4ccc(F)cc4)oc3c2)CC1` [compound 166], above 2; to `CC(C)(C)OC(=O)NC1(COCCNCc2ccc3cc(CCc4ccc(F)cc4)oc3c2)CC1` [compound 156], above 2.

`COC(=O)c1ccc(OCCOCCNCc2ccc3cc(CCc4ccc(F)cc4)oc3c2)cc1` [compound 159] yielded a fold induction at 5 µM above 2. `OCCNCc1ccc2nc(-c3ccccc3)oc2c1` [compound 106]: the fold induction at 5 µM was above 2. Under `COC(=O)CCOCCOCCOCCNCc1ccc2cc(CCc3ccc(F)cc3)oc2c1` [compound 160] stands below 2; under `C#CCOCCOCCOCCNCc1ccc2cc(CCc3ccc(F)cc3)oc2c1` [compound 126], above 2. Under `C#CCCOCCOCCOCCNCc1ccc2cc(-c3ccccc3)oc2c1` [compound 94] stands above 2. Under `CC(C)(C)OC(=O)N[C@H]1CC[C@H](COCCNCc2ccc3cc(CCc4ccc(F)cc4)oc3c2)CC1` [compound 168] stands above 2; under `CC(C)(C)OC(=O)N1CCN(CCOCCNCc2ccc3cc(CCc4ccc(F)cc4)oc3c2)CC1` [compound 147], above 2. `CC(C)NCCOCc1ccc2cc(-c3ccccc3)oc2c1` [compound 77] had a fold induction at 5 µM above 2. To `OCCNCc1ccc2cc(-c3ccccc3Cl)oc2c1` [compound 72] belongs above 2; to `CC(C)(C)OC(=O)N1CC(COCCNCc2ccc3cc(CCc4ccc(F)cc4)oc3c2)C1` [compound 155], above 2. Under `COC1CN(Cc2ccc3cc(-c4ccccc4)oc3c2)C1` [compound 108] stands above 2. To `OCCNCc1ccc2nc(-c3ccccc3)sc2c1` [compound 113] belongs above 2.

Turning to `CCOC(=O)C1CCN(C(=O)COCCNCc2ccc3cc(CCc4ccc(F)cc4)oc3c2)CC1` [compound 142], the fold induction at 5 µM is above 2. To `CNCCOCCOCCOCCNCc1ccc2cc(CCc3ccc(F)cc3)oc2c1` [compound 87] belongs above 2; to `CC(C)(C)OC(=O)NCCOCCOCCOCCNCc1ccc2cc(Cc3ccccc3)oc2c1` [compound 82, tert-butyl (1-(2-benzylbenzofuran-6-yl)-5,8,11-trioxa-2-azatridecan-13-yl)carbamate], below 2; to `C#CCCCCCCOCCNCc1ccc2cc(CCc3ccc(F)cc3)oc2c1` [compound 141], above 2. Under `OCCNCc1ccc2cc(-c3cccc(Cl)c3)oc2c1` [compound 73] stands above 2. In turn, `CC(C)(C)OC(=O)NCCCCCCCCOCCNCc1ccc2cc(CCc3ccc(F)cc3)oc2c1` [compound 149] registered a fold induction at 5 µM above 2.

Usually fold induction stands for the signal under treatment as a multiple of the control signal. The low end stands for little rise in signal, the high end for a large rise in signal.
